pIC50, pKi: −log10 of the molar value. Active and inactive are the calls of the source. No cut-off for these calls is given here.
Experiments:
L3.6pl [1] = test: Cytotoxicity against human L3.6pl cells assessed as reduction in cell growth measured after 72 hrs by CellTiter96 one aqueous solution assay; format: cell-based; conditions: for pIC50: Homo sapiens, L3.6pl; for MTC: human, l3.6pl, time 72 hrs
L3.6pl [2] = test: Inhibition of [3H]spermine uptake in human L3.6pI cells at 3 to 10 uM measured after 15 mins by scintillation counter method; format: functional, cell-based; conditions: dose 3-10 µM
L3.6pl [3] = test: Inhibition of [3H]spermidine uptake in human L3.6pI cells at 3 to 10 uM measured after 15 mins by scintillation counter method; format: functional, cell-based; conditions: dose 3-10 µM
[4] = Inhibition of polyamine transport system in human L3.6pI cells assessed as reduction in [3H] putrescine uptake by Lineweaver-Burk double reciprocal plot analysis; format: cell-based; conditions: l3.6pl
[5] = Inhibition of polyamine transport system in human L3.6pI cells assessed as reduction in [3H] spermidine uptake by Lineweaver-Burk double reciprocal plot analysis; format: cell-based; conditions: l3.6pl
[6] = Inhibition of polyamine transport system in human L3.6pI cells assessed as reduction in [3H] spermine uptake by Lineweaver-Burk double reciprocal plot analysis; format: cell-based; conditions: l3.6pl
L3.6pl [7] = test: Effect on human L3.6pI cells assessed as rescue of Ant44-induced toxicity at 30 uM measured after 24 hrs; format: functional
L3.6pl [8] = test: Inhibition of [3H]putresine uptake in human L3.6pI cells at up to 30 uM measured after 15 mins by scintillation counter method; format: functional, cell-based; conditions: dose microM <=30, time 15.0 min
[9] = Decrease in intracellular polyamine level in human L3.6pI cells assessed as Spd/Spm molar ratio at 30 uM measured after 24 hrs by HPLC analysis (reference value: 1.9); format: functional, L3.6pl
[10] = Decrease in intracellular polyamine level in human L3.6pI cells assessed as Spd/Spm molar ratio at 30 uM measured after 24 hrs in presence of DFMO by HPLC analysis (reference value: 0.2); format: functional, L3.6pl
[11] = Decrease in intracellular polyamine level in human L3.6pI cells assessed as total polyamine level at 30 uM measured after 24 hrs by HPLC analysis (reference value: 35.9 nmol/mg); format: functional, L3.6pl
L3.6pl [12] = test: Inhibition of spermidine uptake in human L3.6pI cells assessed as effect on cell growth measured after 72 hrs in presence of DFMO by CellTiter96 aqueous one solution assay; format: functional, cell-based
L1210 = test: (§1) Cytotoxicity against murine L1210 cells assessed as reduction in cell growth measured after 72 hrs by CellTiter96 one aqueous solution assay; format: cell-based, Mus musculus; conditions: Mus musculus, L1210, 72 h
[13] = as §1; format: cell-based, Mus musculus; conditions: mouse, L1210 cells; time 72 hrs; read-out: MTC
[14] = Decrease in intracellular polyamine level in human L3.6pI cells assessed as Spd/Spm molar ratio at 30 uM measured after 24 hrs in presence of DFMO and Spd by HPLC analysis (reference value: 0.4); format: functional, L3.6pl
[15] = Inhibition of polyamine transport system in murine L1210 cells assessed as reduction in [3H] spermidine uptake by Lineweaver-Burk double reciprocal plot analysis; format: cell-based, Mus musculus
[16] = Decrease in intracellular polyamine level in human L3.6pI cells assessed as total polyamine level at 30 uM measured after 24 hrs in presence of DFMO and Spd by HPLC analysis (reference value: 23.5 nmol/mg); format: functional, L3.6pl
[17] = Decrease in intracellular polyamine level in human L3.6pI cells assessed as total polyamine level at 30 uM measured after 24 hrs in presence of DFMO by HPLC analysis (reference value: 20.7 nmol/mg); format: functional, L3.6pl

| SMILES | pIC50 (L3.6pl [1]) | MTC (L3.6pl [1]) [µM] | inhibition (L3.6pl [2]) | inhibition (L3.6pl [3]) | pKi [4] | pKi [5] | pKi [6] | Activity (L3.6pl [7]) | inhibition (L3.6pl [8]) | Ratio [9] | Ratio [10] | Activity [11] [nmol/mg] | Activity (L3.6pl [12]) | pIC50 (L1210) | MCC at 72 h [13] [nM] | Ratio [14] | pKi [15] | Activity [16] [nmol/mg] | Activity [17] [nmol/mg] |
| --- | --- | --- | --- | --- | --- | --- | --- | --- | --- | --- | --- | --- | --- | --- | --- | --- | --- | --- | --- |
| C1CNCCNCCN1 | 3.01 | 250 |  |  |  |  |  |  |  |  |  |  |  |  |  |  |  |  |  |
| CNCCCCNCCCCNCc1cc(CNCCCCNCCCCNC)cc(CNCCCCNCCCCNC)c1 | 4.30 | 3 | Active | Active | 4.76 | 5.59 | 6.05 |  |  |  |  |  |  |  |  |  |  |  |  |
| C1CNCCCNCCCNC1 | 3.89 | 50 |  |  |  |  |  |  |  |  |  |  |  |  |  |  |  |  |  |
| Cl.Cl.Cl.Cl.Cl.NCCCCNCCCCN1CCNCCNCC1 | 2.93 | 500 | Active | Active | 4.94 | 5.48 | 5.89 | Active | inactive | 1.6 | 0.1 | 36.4 | Active | < 4.00 | > 100000 | 0.2 | 5.72 | 20.8 | 17 |
| Cl.Cl.Cl.Cl.Cl.NCCCCNCCCCN1CCCNCCCNCCC1 | 3.43 | 100 |  |  |  | 5.43 |  |  |  |  |  |  | Active | < 4.00 | 1000 |  | 5.15 |  |  |

From ChEMBL document CHEMBL5029201, “Development of Polyamine Lassos as Polyamine Transport Inhibitors” (ACS Med Chem Lett, 2022)
